The values that follow come from ChEMBL document CHEMBL4219057, “Recent Advances of Colony-Stimulating Factor-1 Receptor (CSF-1R) Kinase and Its Inhibitors” (J Med Chem, 2018).

In one data set the test system is NFS-60. Nature of the data set: Antiproliferative activity against mouse M-NFS-60 cells harboring CSF1. Type of data set: functional, cell-based.
A short description of data set [1]: Protein binding in human plasma at 10 uM after 4 hrs by equilibrium dialysis method. Type of data set: ADME, cell-free. Conditions: read-out: PPB (converted).
Data set [2] concerns the target Macrophage colony-stimulating factor 1 receptor (Homo sapiens, UniProt P07333). In words: Inhibition of CSF1R (unknown origin) using biotinylated peptide substrate.
Data set [3] concerns Mus musculus. Nature of the data set: Anti-inflammatory activity in unilateral ureter obstruction-induced C57BL/6 mouse renal inflammation model assessed as reduction in F4/80+ macrophage accumulation in kidney at 40 mg/kg, po via gavage administered at 12 hrs time interval for 7 days starting from end of UUO surgery by […] staining based immunohistochemical analysis relative to control. Format: functional. Conditions: C57BL/6, po.

Data set [4] is described as follows: Aqueous solubility of the compound by turbidity-based assay. Conditions: buffer. Format: physicochemical.
Data set [5] concerns Mus musculus. Nature of the data set: Inhibition of LPS-induced TNFalpha level in serum of Swiss Webster mouse at 40 mg/kg, po via gavage pretreated for 4.15 hrs followed by LPS stimulation measured after 1.5 hrs by ELISA relative to control. Format: functional.
In data set [6] the test system is Mus musculus. In words: Inhibition of LPS-induced IL-6 level in serum of Swiss Webster mouse at 40 mg/kg, po via gavage pretreated for 4.15 hrs followed by LPS stimulation measured after 1.5 hrs by ELISA relative to control. Format: functional.
Data set [7] has as its target Mast/stem cell growth factor receptor Kit (Homo sapiens, UniProt P10721). Nature of the data set: Inhibition of KIT (unknown origin) using biotinylated peptide substrate.
Data set [8] can be described thus: Tmax in cHL patient at 10 mg administered as single dose. Type of data set: ADME, organism-based. Conditions: human, in vivo.
Data set [9] is described as follows: Drug uptake in tumor of recurrent GB patient at 1000 mg, po daily after 7 days. Conditions: human, read-out: Drug uptake. Format: ADME, organism-based, Neoplasm.

Each structure is given as a SMILES string. Values after ≈ are worked out from the molar mass of the structure shown.

Sequence of Macrophage colony-stimulating factor 1 receptor (P07333 whole entry): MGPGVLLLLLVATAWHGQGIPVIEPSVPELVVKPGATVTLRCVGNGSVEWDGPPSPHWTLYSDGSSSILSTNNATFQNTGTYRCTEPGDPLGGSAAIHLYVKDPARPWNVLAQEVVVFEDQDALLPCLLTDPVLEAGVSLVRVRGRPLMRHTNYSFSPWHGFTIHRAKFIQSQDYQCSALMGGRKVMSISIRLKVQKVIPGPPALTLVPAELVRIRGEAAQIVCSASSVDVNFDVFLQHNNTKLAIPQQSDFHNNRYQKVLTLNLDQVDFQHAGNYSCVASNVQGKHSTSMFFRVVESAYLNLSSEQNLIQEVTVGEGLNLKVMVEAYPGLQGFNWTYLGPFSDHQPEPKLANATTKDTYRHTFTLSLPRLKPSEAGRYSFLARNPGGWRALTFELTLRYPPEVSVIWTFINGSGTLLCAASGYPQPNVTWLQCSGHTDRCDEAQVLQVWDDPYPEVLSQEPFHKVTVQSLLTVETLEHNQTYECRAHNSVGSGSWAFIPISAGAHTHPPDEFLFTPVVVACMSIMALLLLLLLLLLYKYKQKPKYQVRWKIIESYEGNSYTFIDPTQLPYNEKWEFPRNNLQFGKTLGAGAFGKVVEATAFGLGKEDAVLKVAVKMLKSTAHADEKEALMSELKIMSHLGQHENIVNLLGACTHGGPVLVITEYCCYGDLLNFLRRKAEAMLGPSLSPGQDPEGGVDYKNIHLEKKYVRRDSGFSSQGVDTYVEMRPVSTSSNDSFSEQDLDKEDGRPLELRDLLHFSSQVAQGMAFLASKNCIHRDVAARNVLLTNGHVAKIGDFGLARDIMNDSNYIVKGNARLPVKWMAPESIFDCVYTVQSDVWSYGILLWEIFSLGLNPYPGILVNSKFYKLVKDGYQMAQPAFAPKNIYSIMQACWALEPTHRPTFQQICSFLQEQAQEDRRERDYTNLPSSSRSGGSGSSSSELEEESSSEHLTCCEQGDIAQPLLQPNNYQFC
Sequence of Mast/stem cell growth factor receptor Kit (P10721 whole entry): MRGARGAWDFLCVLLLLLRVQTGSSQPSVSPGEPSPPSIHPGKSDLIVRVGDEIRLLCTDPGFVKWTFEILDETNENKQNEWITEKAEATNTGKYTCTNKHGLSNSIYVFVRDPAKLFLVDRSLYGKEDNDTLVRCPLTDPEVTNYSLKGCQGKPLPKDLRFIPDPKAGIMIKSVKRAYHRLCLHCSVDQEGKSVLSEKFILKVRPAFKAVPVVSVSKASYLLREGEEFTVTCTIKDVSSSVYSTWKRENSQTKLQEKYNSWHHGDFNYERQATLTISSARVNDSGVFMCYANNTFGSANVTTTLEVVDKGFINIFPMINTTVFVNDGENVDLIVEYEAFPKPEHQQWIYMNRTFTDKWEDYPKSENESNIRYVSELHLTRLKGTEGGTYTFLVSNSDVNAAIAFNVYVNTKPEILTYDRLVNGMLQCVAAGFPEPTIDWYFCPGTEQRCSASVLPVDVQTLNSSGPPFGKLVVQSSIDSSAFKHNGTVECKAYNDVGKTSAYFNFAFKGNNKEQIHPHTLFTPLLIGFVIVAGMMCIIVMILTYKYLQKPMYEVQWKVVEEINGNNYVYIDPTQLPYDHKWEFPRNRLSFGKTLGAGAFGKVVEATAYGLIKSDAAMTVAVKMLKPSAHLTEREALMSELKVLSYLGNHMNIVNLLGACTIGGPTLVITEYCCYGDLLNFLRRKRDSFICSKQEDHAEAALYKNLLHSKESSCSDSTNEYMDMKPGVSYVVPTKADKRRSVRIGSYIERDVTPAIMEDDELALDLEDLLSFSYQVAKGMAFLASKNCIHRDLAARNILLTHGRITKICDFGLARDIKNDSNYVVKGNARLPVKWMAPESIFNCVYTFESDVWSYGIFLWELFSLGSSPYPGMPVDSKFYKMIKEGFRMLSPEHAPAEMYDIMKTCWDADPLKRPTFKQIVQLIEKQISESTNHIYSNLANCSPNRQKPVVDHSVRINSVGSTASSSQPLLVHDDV

Consider `CNC(=O)c1cc(Oc2ccc3nc(N[C@@H]4CCCC[C@@H]4O)sc3c2)ccn1`, for which the EC50 in the data set on NFS-60 amounted to 140 nM. Also, the fraction unbound at 4 h, 10 µM in [1] is 0.031.
For `CNC(=O)c1cc(Oc2ccc3nc(N[C@@H]4CCCC[C@H]4O)sc3c2)ccn1` [SOTULETINIB], in that order: 71 nM and 0.037.
Regarding `FC(F)(F)c1ccc(CNc2ccc(Cc3c[nH]c4ncccc34)cn2)cc1`, the values for the IC50 in data set [2] and in [7] were 28 nM and 16 nM, respectively. The inhibition in vivo at 40 mg/kg with Mus musculus [3] was determined as 77%; in the data set on Mus musculus [5], 85%; in the data set on Mus musculus [6], 75%. For the same compound, the solubility (kinetic) in data set [4] is 14 µM (≈ 5.35 µg/mL).
`COc1cnc2[nH]cc(Cc3ccc(NCc4ccc(C(F)(F)F)cc4)nc3)c2c1`: the IC50 in [2] stood at 62 nM. In [4], this compound yielded a solubility (kinetic) of 77 µM (≈ 31.8 µg/mL).
Turning to `CC1(C)CC=C(c2nc(C3CC(C)(C)OC(C)(C)C3)ccc2NC(=O)c2nc(C#N)c[nH]2)CC1` [EDICOTINIB], the time of peak concentration (Tmax) in [8] lay in the range of 1 to 3.5 h.
As to `FC(F)(F)c1ccc(CNc2ccc(Cc3c[nH]c4ncc(Cl)cc34)cn2)cn1` [PEXIDARTINIB], in data set [9], the concentration at 168 h is 5500 ng/g.
